Test results as given in patent publication US20210198284A1, “GOLD COMPOSITIONS AND METHODS OF USE THEREOF” (THE UNIVERSITY OF MASSACHUSETTS, priority 2018, published 2021).
Like-named read-outs stand apart in the source and are kept apart here.

Experiments:
E. faecalis ATCC 700221 = assay: Antibacterial assay, MIC/MBC by broth microdilution (CLSI); assay type: cell-based; settings: for MIC: repeated twice, a/b = both values
Description: (§1) Antibacterial assay. The minimum inhibitory concentrations (MICs) and the minimum bactericidal concentrations (MBCs) were determined by the broth microdilution method as described in the CLSI (The Clinical & Laboratory Standards Institute) guidelines (Performance standards for antimicrobial susceptibility testing: Clinical and Laboratory Standards Institute (CLSI), Twenty-Fifth informational supplement. Document M100-S25: […]; Vol. 35). All bacterial strains were cultured in cation-adjusted Muller Hinton broth (CAMHB) up to log-phase and then diluted to give a concentration of 7.5×10^5 CFU/mL. The gold complexes were dissolved in DMSO or water as stock solutions, which were then serially diluted two-fold in a 96-well plate. Aliquots (100 μL) of the dilutions were mixed with equal volumes of the bacterium suspension in a 96 well plate (in triplicates). The plates were incubated at 37° C. for 18 h without shaking. Negative and positive controls were included in the same well plate with wells having the culture medium only and bacteria solution only, respectively. The sample concentration that gave inhibition values above 90% were determined as MICs as calculated from absorbance values at 600 nm (OD600) obtained using a Tecan SPARK IOM plate reader. To determine minimum bactericidal concentrations (MBCs), agar plates were treated with 5 μL sample solutions from each well, and then incubated at 37° C. for 18 h without shaking. The sample concentration that gave no colony formed on agar plates were determined as MBCs.
(§2) Selection of bacteria. The ESKAPE pathogens were chosen as they are responsible for the majority of nosocomial infections and also as they provide a good scope of strains including both Gram-negative and Gram-positive species. A. baumannii NCTC 13420 was originally identified in 24 hospitals in the UK during 2000-2003, which produced OXA-51-like β-lactamases, and was highly resistant to ampicillin, piperacillin, piperacillin/tazobactam, ceftazidime, cefotaxime, gentamicin and ciprofloxacin. P. aeruginosa NCTC13437 produces VIM-10 metallo-carbapenemase and VEB-1 (Vietnamese extended-spectrum beta-lactamase). Wild-type strain E. cloacae NCTC 13405 (originally named E. cloacae 684) was isolated from patients at the London Hospital during 1982-1983. This strain has inducible AmpC β-lactamase and is resistant to ampicillin/amoxicillin and cefoxitin. K. pneumoniae ATCC 700603 was isolated from the urine of a hospitalized patient in Richmond, Va. in 1994, and it produces SHV-18 extended spectrum beta-lactamase (ESBL). JE2 (USA300) is a methicillin-resistant S. aureus (MRSA) strain, also resistant to beta-lactams, ciprofloxacin, tetracycline, macrolides (erythromycin), lincosamides (clindamycin), streptogramin B, and mupirocin. E. faecium ATCC 700221, a positive fecal VRE (vancomycin-resistant enterococcus) isolate, is resistant to several antibiotics including vancomycin and teicoplanin. The quality control strain, Gram-negative E. coli ATCC 25922, was included in all assays and validated with ciprofloxacin and […].

[1] = Log P determination (n-octanol/water, FAAS); settings: for logP: Log P
Description: Log P Determination: Calibration curves. Milli-Q Water (150 mL) was added to n-octanol (150 mL), and the mixture was stirred for 3 days to allow both phases to reach saturation. The gold standard solution (1000 ppm Au in hydrochloric acid, Fisher Scientific) was diluted to 1, 2, 3, 4 and 5 ppm with n-octanol-saturated water, and the absorbance of the resulting solutions was measured by flame atomic absorption spectroscopy (FAAS, Agilent Technology 200 Series AA, equipped with a gold HC Lamp-Au coded). The absorbance data were plotted against Au concentration, and the resulting calibration curve was used for determining the concentration of the analogs in the aqueous phase.
To construct the standard calibration curve of the Au concentration in the n-octanol phase, compound 27 was used. The Au concentration in compound 27 was first calibrated against the aqueous gold standard. For this, 0.440 mg of compound 27 was weighed on a Sartorius MC5 microbalance, and then added to 22 mL of n-octanol-saturated water. […] For this, solutions of varying concentrations (0.99, 2.47, 4.94, 5.93, 9.88 ppm) of compound 27 in water-saturated n-octanol were prepared. The absorbance was measured by FAAS, and the data were plotted against the Au concentration to provide a second calibration curve, which was used for determining the Au concentration of the analogs in the n-octanol phase.
Determination of Au concentrations: Method 1. 0.5 to 1 mg of compound was weighed into a 2-mL Eppendorf tube containing 2 mL of n-octanol-saturated water. After shaking for about 4 h, the solution was centrifuged at 6000 rpm for 3 min. 1 mL of the supernatant was transferred to a new tube containing 1 mL of water-saturated n-octanol, and the mixture was shaken for 1 h. After centrifugation at 6000 rpm for 5 min, the two layers were collected and the gold concentration in each layer was determined by FAAS by comparing the absorbance to the first and second calibration curves.
Determination of Au concentrations: Method 2. […] For Method 2, 0.6 to 1 mg of compound was weighed into a 2-mL Eppendorf tube containing 1 mL of n-octanol-saturated water and 1 mL of water-saturated n-octanol. After shaking for 3-4 h, the mixture was centrifuged, and all liquid was transferred to a 15-mL tube. The liquid was then diluted with 2 mL of n-octanol-saturated saturated water and 2 mL of water-saturated n-octanol, and the mixture was shaken for another hour. After centrifugation at 6000 rpm for 5 min, the two layers were collected and the gold concentration in each layer was determined by FAAS by comparing the absorbance to the first and second calibration curves.
Log P was calculated as follows: log P=log[compound]oct/[compound]water

A. baumannii NCTC 13420 = assay: Antibacterial assay, MIC/MBC by broth microdilution (CLSI); assay type: cell-based; settings: A. baumannii NCTC 13420; for MIC: repeated twice, a/b = both values
Description: as §1, §2

E. cloacae NCTC 13405 = assay: as above; assay type: cell-based; settings: E. cloacae NCTC 13405; for MIC: repeated twice, a/b = both values
Description: as §1, §2

E. coli ATCC 25922 = assay: as above; assay type: cell-based; settings: for MIC: repeated twice, a/b = both values
Description: as §1, §2

[2] = system: K. pneumoniae ATCC 700603; assay: as above; assay type: cell-based; settings: K. pneumoniae ATCC 700603; for MIC: repeated twice, a/b = both values
Description: as §1, §2

P. aeruginosa NCTC 13437 = assay: as above; assay type: cell-based; settings: P. aeruginosa NCTC 13437; for MIC: repeated twice, a/b = both values
Description: as §1, §2

S. aureus JE2 (USA300) = assay: as above; assay type: cell-based; settings: S. aureus JE2 (USA300); for MIC: repeated twice, a/b = both values
Description: as §1, §2

A549 cells = assay: Cytotoxicity assay (resazurin); assay type: cell-based; settings: 20 h, mean±S.E.M. from two independent experiments
Description: Sample preparation. The compounds were dissolved in DMSO at 12.8 mg/mL as the stock solutions, except for compounds 9-17, which were directly dissolved in the culture medium at 12.8 mg/mL. The stock solutions were diluted by the culture medium to the testing concentration at 128 μg/mL (compound 9-17 were diluted to 1,280 μg/mL). The solutions were then serially diluted two fold in a 96-well plate and were used in the cytotoxicity assay immediately.
Cell culture and cytotoxicity assay. A549 cells (ATCC CCL-185) were cultured in high glucose DMEM (Sigma-Aldrich, D6429) supplemented with 10% FBS, 1% penicillin-streptomycin solution (Sigma-Aldrich, P4333), 1% gentamicin solution (Sigma-Aldrich, G1272) and 1% amphotericin B solution (Sigma-Aldrich, A2942) at 37° C. in a humidified atmosphere containing 5% CO2. After cells reached 80%˜90% confluency, they were detached and counted using an Invitrogen Countess automated cell counter. Cells with viability over 90% were seeded at a density of 5×10^3 cells per well in 96-well cell culture plates. After overnight culture, the culture medium in each well removed with a pipet. 80 μL of the compound solutions from each well of the 96-well plate prepared above were transferred to this 96-well plate containing the cells, and the plates were incubated for 20 h. After addition of 8 μL of 110 μg/mL resazurin, the plates were incubated for further 3 h at 37° C. in 5% CO2. The fluorescence intensity was measured using a Tecan M200 Infinite Pro microplate reader at excitation 560 nm, emission 590 nm. IC50 were calculated by curve fitting the inhibition values vs. log(concentration) using GraphPad's Prism. The cytotoxicity assays (in triplicate) were repeated twice using freshly prepared cells and compound solutions.

| Molecule | MIC (E. faecalis ATCC 700221) | logP ([1]; n-octanol/water, gold by FAAS) | MBC (in brackets) (A. baumannii NCTC 13420) | MIC (A. baumannii NCTC 13420) | MBC (in brackets) (E. cloacae NCTC 13405) | MIC (E. cloacae NCTC 13405) | MBC (in brackets) (E. coli ATCC 25922) | MIC (E. coli ATCC 25922) | MBC (in brackets) (E. faecalis ATCC 700221) | MBC (in brackets) [2] | MIC [2] | MBC (in brackets) (P. aeruginosa NCTC 13437) | MIC (P. aeruginosa NCTC 13437) | MBC (in brackets) (S. aureus JE2 (USA300)) | MIC (S. aureus JE2 (USA300)) | IC50 against A549 cells (A549 cells) | Log P [1] | Log P ([1]; n-octanol/water, gold by FAAS) |
| --- | --- | --- | --- | --- | --- | --- | --- | --- | --- | --- | --- | --- | --- | --- | --- | --- | --- | --- |
| CCCC[P+](CCCC)(CCCC)[Au-][S][C@@H]1OC(COC(C)=O)[C@@H](OC(C)=O)[C@H](OC(C)=O)C1OC(C)=O (stereo partly drawn) [Compound 36, (2,3,4,6-Tetra-O-acetyl-1-thio-β-D-glucopyranosato)(tri-n-butylphosphine) gold(I)] | 3/5 | > 4.32 |  |  |  |  |  |  |  |  |  |  |  |  |  |  |  |  |
| COc1ccc([P+]([Au-][S][C@@H]2OC(COC(C)=O)[C@@H](OC(C)=O)[C@H](OC(C)=O)C2OC(C)=O)(c2ccc(OC)cc2)c2ccc(OC)cc2)cc1 (stereo partly drawn) [Compound 38, (2,3,4,6-Tetra-O-acetyl-1-thio-β-D-glucopyranosato)(tris(4-methoxyphenyl)phosphine) gold(I)] | 2/4 | > 3.03 |  |  |  |  |  |  |  |  |  |  |  |  |  |  |  |  |
| CC(=O)OCC1O[C@@H]([S][Au-][P+](c2ccc(F)cc2)(c2ccc(F)cc2)c2ccc(F)cc2)C(OC(C)=O)[C@@H](OC(C)=O)[C@@H]1OC(C)=O (stereo partly drawn) [Compound 39, (2,3,4,6-Tetra-O-acetyl-1-thio-β-D-glucopyranosato)(tris(4-fluorophenyl)phosphine)gold(I)] | 2/5 | > 3.04 |  |  |  |  |  |  |  |  |  |  |  |  |  |  |  |  |
| (1-Thio-β-D-galatopyranosato)(triethylphosphine) gold(I) [Compound 10] |  |  | 31 (31) μM/mL | 31 (31) μM/mL | 63 (63) μM/mL | 63 (63) μM/mL | 16 (16) μM/mL | 16 (16) μM/mL | (0.5) μM/mL | 251 (251) μM/mL | 251 (251) μM/mL | 251 (251) μM/mL | 251 (251) μM/mL | (0.1) μM/mL | 0.02 μM/mL | 16.9 ± 0.5 µg/mL | −0.73 |  |
| (1-Thio-β-D-galatopyranosato)(trimethylphosphine) gold(I) [Compound 16] |  |  | 17 μM/mL | 17/9 | 4(4) μM/mL | 4(4) μM/mL | 9 (9) μM/mL | 9 (9) μM/mL | (0.5) μM/mL | 34 (34) μM/mL | 34 (34) μM/mL |  | >547 μM/mL | 0.3 (0.3) μM/mL | 0.3 (0.3) μM/mL | 43.0 ± 3.7 µg/mL | −1.88 |  |
| (Triphenylphosphine) gold chloride [Compound 31] | 4 (4) μM/mL |  |  |  |  | >518 μM/mL |  | >518 μM/mL | 4 (4) μM/mL |  | >518 μM/mL |  | >518 μM/mL | 4 μM/mL | 1/2 | 12.0 ± 1.8 µg/mL |  | >3.94 |
| [β-D-galactopyranosyl-(1→4)-β-D-glucopyranosato](triethylphosphine) gold(I) [Compound 13] | 0.09 μM/mL |  |  | 24/48 | 190 (190) μM/mL | 190 (190) μM/mL | 24 (24) μM/mL | 24 (24) μM/mL | (0.4) μM/mL | 381 (381) μM/mL | 381 (381) μM/mL | 381 (381) μM/mL | 381 (381) μM/mL | 5 (0.09) μM/mL |  | 32.9 ± 4.6 µg/mL |  |  |
